Source: patent publication US6989393B2, “Ccr5 modulators benzimidazoles or benzotriazoles” (AstraZeneca AB, priority 2000, dated 2006)

| SMILES | melting point [°C] |
| --- | --- |
| N#CC(CCN1CCC(n2cnc3ccccc32)CC1)(c1ccccc1)c1ccccc1 [Example 19, 1-[1-(3-Cyano-3,3-diphenylpropyl)-piperidin-4-yl]benzimidazole] | 172 to 173 |
| c1ccc(C(CCN2CCC(n3cnc4ccccc43)CC2)c2ccccc2)cc1 [Example 2, 1-[1-(3,3-Diphenylpropyl)-piperidin-4-yl]benzimidazole] | 156 to 157 |
